From US6605712B1, “Gene transcription and ionizing radiation: methods and compositions” (Arch Development Corporation, priority 1990, dated 2003)
Entries after “also recorded” stand apart in the source; their conditions may differ.

Experiments:
HL-525 cells [1] = assay: Nuclear run-on assay of c-Jun transcription; assay type: cell-based, human; conditions: radiation alone 4-fold increase
Experimental: Nuclear run-on assays. Nuclei were isolated from 10^8 cells and suspended in 100 μl glycerol buffer (50 mM Tris-HCl, pH 8.3, 40% glycerol, 5 mM MgCl2, and 0.1 mM EDTA). An equal volume of reaction buffer (10 mM Tris-HCl, ph 8.0, 5 mM MgCl2, 100 mM KCl, 1 mM ATP, 1 mM CTP, 1 mM GTP, and 5 mM dithiothreitol) was added to the nuclei in suspension and incubated at 26° C. for 30 min with 250 μCi [α-^32P]UTP (3000 Ci/mmol; Dupont, Boston, Mass.). The nuclear RNA was isolated as described and hybridized to the following DNAs: 1) a PstI digest of the pA1 plasmid containing a fragment of the chicken β-action gene; and 2) a BamHI/EcoRI digest of the pBluescript SK(+) plasmid containing a fragment of the human c-Jun gene. The digested DNAs were run in 1% agarose gels and transferred to nitrocellulose filters. Hybridizations were performed with 10^7 cpm of ^32P-labeled RNA/ml in 10 mM Tris-HCl, ph 7.5, 4×SSC, 1 mM EDTA, 0.1% SDS, 2×Denhardt's solution, 40% formamide, and 100 μg/ml yeast tRNA for 72 h at 42° C. The filters were washed in: a) 2×SSC-0.1% SDS at 37° C. for 30 min; b) 200 ng/ml RNase A in 2×SSC at room temperature for 5 min; and c) 0.1×SSC-0.1% SDS at 42° C. for 30 min.

HL-205 cells = assay: Northern analysis of c-Jun mRNA; assay type: cell-based, human
Experimental: (§1) Cell culture. Clone HL-205 was isolated from the human HL-60 myeloid leukemia cell line. The phorbol ester-resistant variant of HL-60 cells, designated HL-525, was isolated by exposing wild-type cells to low concentrations of 12-0-tetradecanoylphorbol-13-acetate (TPA; 0.5 to 3 nM) for 102 passages. These cells were maintained in RPMI 1640 medium containing 20% fetal bovine serum (FBS) with 1 mM L-glutamine, 100 U/ml penicillin and 100 μg/ml streptomycin. Irradiation was performed at room temperature using a Gamma cell 1000 (Atomic Energy at Canada Ltd., Ontario) with a ^137CS source emitting at a fixed dose rate of 14.3 Gray (Gy)/min as determined by dosimetry.
(§2) Isolation and analysis of RNA. Total cellular RNA was purified by the guanidine isothiocyanate-cesium chloride technique. The RNA was analyzed by electrophoresis through 1% agarose-formaldehyde gels, transferred to nitrocellulose filters, and hybridized to the following 32P-labeled DNA probes: 1) the 1.8-kb BamHI/EcoRI insert of a human c-Jun gene purified from a pBluescript SK(+) plasmid; 2) the 1.5-kb EcoRI fragment of the murine Jun-B cDNA from the p465.20 plasmid; 3) Jun-D; 4) the 0.9-kb ScaI/NcoI insert of human c-fos gene purified from the pc-fos-1 plasmid; 5) the 2.0-kb PstI insert of a chicken β-actin gene purified from the pA1 plasmid; and 6) the 1.9-kb BamHI/PstI insert of a human TNF cDNA purified from the pE4 plasmid. Hybridizations were performed at 42° C. for 24 h in 50% (v/v) formamide, 2×SSC, 1×Denhardt's solution, 0.1% SDS, and 200 μg/ml salmon sperm DNA. The filters were washed twice in 2×SSC-0.1% SDS at room temperature and then in 0.1×SSC-0.1% SDS at 60° C. for 1 hour.

HL-525 cells [2] = assay: Northern analysis of c-Jun mRNA; assay type: cell-based, human
Experimental: as §1, §2

RIT-3 cells = assay: GAL4-Jun chimeric / G5BCAT co-transfection CAT assay; assay type: cell-based, human
Description: HeLa and RIT-3 cells were transfected with two plasmids. Plasmid pSG-Jun5-253 contained the SV40 promoter (not transcriptionally responsive to radiation) upstream of an encoding region that encoded a chimeric protein (GAL4-Jun) comprising a sequence for Δ, A1, and A2 (Baichwal, 1990) and the DNA binding domain of the yeast GAL4 gene (the DNA binding domain of Jun was replaced with the DNA binding domain of the GAL4 gene, Baichwal, 1990). A second plasmid, G5BCAT was constructed to contain the DNA sequence that binds Gal4 protein placed 5′ of the Elb TATA box and upstream of the CAT reporter gene (Baichwal, 1990).
Two plasmids were transfected into HeLa and RIT-3 cells to study activation of the transcriptional potential of Jun protein following irradiation. pSG-Jun5-253 contains the SV40 promoter, which is not transcriptionally responsive to radiation, upstream of the coding sequence for Δ, A1, and A2 (Baichwal, 1990). The DNA binding domain of Jun was replaced with the DNA binding domain of the yeast GAL4 gene which encodes a protein involved in yeast transcriptional regulation (Baichwal, 1990). A second plasmid, G5BCAT contains the DNA sequence which binds Gal4 protein placed 5′ of the E1b TATA box upstream of the CAT reporter gene (Baichwal, 1990). […]

c-Jun gene expression = conditions: other studies; cited from earlier work
[3] = system: Egr-1 and Jun transcripts in cell lines 293 and SQ-20B; assay: Northern blot of Egr-1 and Jun transcripts after x-irradiation with inhibitors; assay type: cell-based; conditions: for effect on x-ray-induced increase in Egr-1 and Jun transcripts: treatment prior to irradiation
Experimental: Cell line SQ-20B was pretreated with 1 μM TPA for 40 hours to down regulate PKC and then stimulated with TPA, serum, or x-ray (20 Gy). Controls included x-ray without TPA pretreatment, TPA (50 nM) without TPA pretreatment and untreated cells. RNA was isolated after one hour and hybridized to Egr-1. SQ-20B cells were preincubated with 100 μM H7 (1-(5-isoquinolinylsulfonyl)-2-methyl piperazine) or 100 μM HA1004 (N-[2-methyl-amino]ethyl)-5-isoquino-linesulfonamide) (Seikagaku America, Inc., St. Petersberg, Fla.) for 30 minutes or TPA pretreatment (1 μM) for 40 hours and followed by exposure to 20 Gy x-irradiation. RNA was extracted one hour after irradiation. Positive control cells treated under the same conditions but in the absence of inhibitor also received 20 Gy, while negative control cells received neither H7 nor X-ray. RNA was extracted at one hour after 20 Gy without inhibitor. Northern blots were hybridized to Egr-1 or 7S. 293 cells pretreated with the above inhibitors were irradiated, RNA was extracted after 3 hours and the Northern blot was hybridized to Jun and 7S probes.

[4] = system: 12 human epithelial tumor cell lines; conditions: cited from earlier work
cell line STSAR-33 = assay: Colony-forming radiation-survival assay with TNF-α; assay type: cell-based, human
cell line STSAR-5 = assay: Colony-forming radiation-survival assay with TNF-α; assay type: cell-based, human; conditions: STSAR-5, 100-700 cGy
[5] = system: TNF-α-producing sarcomas (STSAR-5, -13, -33, and -43)
cell line SQ-20B = assay: Colony-forming radiation-survival assay with TNF-α; assay type: cell-based, human
cell line HNSCC-68 = assay: Colony-forming radiation-survival assay with TNF-α; assay type: cell-based, human; conditions: nonlethal TNF-α 10 units/ml
[6] = system: Cell lines STSAR-13 and STSAR-43; assay: Colony-forming radiation-survival assay with TNF-α; assay type: cell-based, human

CC(=O)N[C@@H](CS)C(=O)O [NAC, N-acetyl-L-cysteine]
inhibition of radiation-increased rate of c-Jun transcription (HL-525 cells [1]): ~90%
effect on constitutive levels of c-Jun transcripts (HL-205 cells; 30 mM): little if any effect on constitutive levels of c-Jun transcripts
inhibition of x-ray-induced increases in c-Jun expression (HL-205 cells; 30 mM): over 90%
effect on H2O2-induced c-Jun expression (HL-525 cells [2]): similarly inhibited
effect on ara-C-induced c-Jun gene induction (HL-525 cells [2]): no detectable effect on induction of the c-Jun gene; also recorded: no detectable effect on ara-C-induced increases in c-Jun transcripts
effect on x-ray-induced c-Jun expression (HL-525 cells [2]): inhibited

OO [Plasmid H2O2, H2O2]
effect of agent alone on c-Jun expression (HL-525 cells [2]): transiently induced c-Jun expression; also recorded: increased c-Jun expression

CC1CNCCN1S(=O)(=O)c1cccc2cnccc12 (centres unmarked) [Plasmid H7, 1-(5-isoquinolinylsulfonyl)-2-methyl piperazine]
effect on x-ray induced increase in CAT activity (RIT-3 cells; added to RIT-3 cells transfected with pSG-Jun5-235 and G5BCAT): abrogated the x-ray induced increase in CAT activity
effect on x-ray-induced c-Jun expression (c-Jun gene expression): block x-ray-induced c-Jun gene product expression; also recorded: inhibited
effect on x-ray-induced increase in Egr-1 and Jun transcripts [3]: attenuated the increase in Egr-1 and Jun transcripts; also recorded: attenuation of Egr-1 and Jun gene induction by ionizing radiation

CCCCCCCCCCCCCC(=O)O[C@@H]1[C@@H](C)[C@@]2(O)[C@@H](C=C(CO)C[C@]3(O)C(=O)C(C)=C[C@@H]23)[C@H]2C(C)(C)[C@]12OC(C)=O [TPA, 12-0-tetradecanoylphorbol-13-acetate]
increase in CAT activity following TPA stimulation (RIT-3 cells; HeLa and RIT-3 transfectants with pSG-Jun5-253 and G5BCAT): 3.5 fold
effect on c-Jun expression (HL-205 cells; agent alone): increases in c-Jun expression that were detectable at 6 hours and reached maximal levels by 24 hours
effect on expression of Jun-B, Jun-D, c-fos, fos-B (HL-525 cells [2]): little if any effect on expression of these genes
effect on x-ray-induced c-Jun expression (HL-525 cells [2]): blocks x-ray-induced increases in c-Jun expression
block of H2O2-induced increases in c-Jun expression (HL-525 cells [2]; pretreatment): 80%
block of x-ray induced increases in c-Jun expression (HL-525 cells [2]; pretreatment 36-39 hours): over 75%
effect on x-ray-induced increase in Egr-1 and Jun transcripts [3]: attenuated the increase in Egr-1 and Jun transcripts; also recorded: attenuation of Egr-1 and Jun gene induction by ionizing radiation

CCC/C=C/C=C/C(=O)O[C@H]1/C(=C/C(=O)OC)C[C@H]2C[C@H]([C@@H](C)O)OC(=O)C[C@H](O)C[C@@H]3C[C@H](OC(C)=O)C(C)(C)[C@](O)(C[C@@H]4C/C(=C/C(=O)OC)C[C@H](/C=C/C(C)(C)[C@]1(O)O2)O4)O3 [bryostatin]
effect on H2O2-induced c-Jun expression (HL-525 cells [2]): no detectable effect
effect on x-ray-induced c-Jun expression (HL-525 cells [2]): little if any effect on the induction of c-Jun transcripts by ionizing radiation

C[C@@H]1C[C@@H]([C@H](O)CC2CC(=O)NC(=O)C2)C(=O)[C@@H](C)C1 [cycloheximide]
Jun mRNA after irradiation in pretreated cells ([3]; 293 cells pretreated with CHI): persistent elevation of Jun mRNA at 6 hours
Egr-1 mRNA after irradiation in pretreated cells ([3]; SQ-20B cells pretreated with CHI): persistent elevation of Egr-1 at 3 hours
effect of treatment alone on Egr-1 and Jun transcripts ([3]; normalized to 7S, no irradiation): low but detectable increase in Egr-1 and Jun transcripts
effect on x-ray-induced increase in Egr-1 and Jun transcripts [3]: superinduction of Jun and Egr-1

TNF-α
concentrations with cytotoxic effects [4]: 10 to 1000 units/ml
killing by TNF and x-rays combined ([4]; seven of those ten cell lines): synergistic or additive killing
interaction between TNF-α and radiation (cell line STSAR-33; STSAR-33, TNF-α 10 units/ml): synergistic; also recorded: enhanced killing by radiation
radiosensitivity (D0) (cell line STSAR-33; TNF-α 10 units/ml added 20 hr before irradiation, 80.4 cGy without TNF-α): 60.4 cGy
plating efficiency (PE) (cell line STSAR-33; TNF-α at 1000 units/ml): 30%
interaction between TNF-α and radiation (cell line STSAR-5): additive
cytotoxicity (SQ-20B and SCC-61 cells): cytotoxic
reduction of plating efficiency (PE) (SQ-20B and SCC-61 cells; 1000 units/ml): 60-80%
cytotoxicity [5]: cytotoxic
reduction of plating efficiency (PE) ([5]; 1000 units/ml): 60-90%
killing with TNF-α alone (cell line SQ-20B; SQ-20B, FIG. 1B): 85%
radiosensitivity (D0) (cell line SQ-20B; TNF-α 1000 units/ml added 24 hr before x-rays, 239 cGy without TNF-α): 130.4 cGy
effect on cell killing by radiation (cell line SQ-20B; TNF-α added after irradiation): did not enhance cell killing by radiation
effect on radiation killing (cell line HNSCC-68): enhanced radiation killing
interaction between TNF-α and radiation [6]: no interaction was observed
